The text below walks through data of patent US12077503B2, “Substituted cyclic amides and their use as herbicides” (FMC CORPORATION, priority 2015, dated 2024).

Molecules are shown by their SMILES.

What all share (type): in vivo
Assay [1] concerns Kochia (Kochia scoparia). Briefly: Test A preemergence. The note with it: Bassia scoparia, pre-emergence, 240 h. In outline: (§1)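 Ratings of 0 (no effect) to 100 (complete control) come from visual comparison with untreated controls roughly 10 d after treatment. Test chemicals, formulated in a non-phytotoxic solvent mixture with surfactant, were applied either as a preemergence directed soil spray on seeded soil or postemergence to one- to two-leaf plants 2 to 10 cm tall.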

The subject of assay [2] is barnyardgrass (Echinochloa crus-galli). Kind of assay: Test A preemergence. Conditions: Echinochloa crus-galli, pre-emergence, 240 h. The procedure, abridged:
as §1

Assay [3] relates to giant foxtail (Setaria faberii). Kind of assay: Test A preemergence. Conditions: Setaria faberi, pre-emergence, 240 h. The procedure, abridged: as §1
Assay [4] concerns pigweed (Amaranthus retroflexus). Kind of assay: Test A preemergence. Conditions: Amaranthus retroflexus, pre-emergence, 240 h, 125 g ai/ha, preemergence; 0 to 100 scale where 0 is no effect and 100 is complete control; read-out: Pigweed plant response rating.
The test system of assay [5] is ragweed (common ragweed, Ambrosia elatior). Briefly: Test A preemergence. The note with it: Ambrosia artemisiifolia, pre-emergence, 240 h. In outline:
as §1

Assay [6] concerns ryegrass, Italian (Italian ryegrass, Lolium multiflorum). Kind of assay: Test A preemergence. The note with it: Lolium multiflorum, pre-emergence, 240 h. The procedure, abridged: as §1
Assay [7] has as its system Galium (catchweed bedstraw, Galium aparine). Briefly: Test A postemergence. Conditions: Galium, post-emergence, 240 h, 125 g ai/ha, postemergence, visual injury rating after approximately 10 d; read-out: Galium plant response rating (0 to 100 scale, 0 no effect, 100 complete control). The procedure, abridged:
as §1

Assay [8] concerns Kochia (Kochia scoparia). Briefly: Test A postemergence. The note with it: Bassia scoparia, post-emergence, 240 h, 125 g ai/ha, postemergence, visual injury rating after approximately 10 d; read-out: Kochia plant response rating (0 to 100 scale, 0 no effect, 100 complete control). The procedure, abridged:
as §1

For assay [9], the system named is barnyardgrass (Echinochloa crus-galli). Briefly: Test A postemergence. The note with it: Echinochloa crus-galli, post-emergence, 240 h, 125 g ai/ha, postemergence, visual injury rating after approximately 10 d; read-out: Barnyardgrass plant response rating (0 to 100 scale, 0 no effect, 100 complete control). The procedure, abridged:
as §1

Assay [10] has as its system blackgrass (Alopecurus myosuroides). Briefly: Test A postemergence. The note with it: Alopecurus myosuroides, post-emergence, 240 h, 125 g ai/ha, postemergence, visual injury rating after approximately 10 d; read-out: Blackgrass plant response rating (0 to 100 scale, 0 no effect, 100 complete control). The procedure, abridged:
as §1

The test system of the next assay is corn (Zea mays). Kind of assay: Test A postemergence. The note with it: Zea mays, post-emergence, 240 h, 125 g ai/ha, postemergence, visual injury rating after approximately 10 d; read-out: Corn plant response rating (0 to 100 scale, 0 no effect, 100 complete control). In outline:
as §1

In assay [11] the test system is giant foxtail (Setaria faberii). Briefly: Test A postemergence. The note with it: Setaria faberi, post-emergence, 240 h, 125 g ai/ha, postemergence, visual injury rating after approximately 10 d; read-out: Foxtail, Giant plant response rating (0 to 100 scale, 0 no effect, 100 complete control). The procedure, abridged:
as §1

The subject of assay [12] is ragweed (common ragweed, Ambrosia elatior). Kind of assay: Test A postemergence. Conditions: Ambrosia artemisiifolia, post-emergence, 240 h, 125 g ai/ha, postemergence, visual injury rating after approximately 10 d; read-out: Ragweed plant response rating (0 to 100 scale, 0 no effect, 100 complete control). In outline:
as §1

The test system of assay [13] is ryegrass, Italian (Italian ryegrass, Lolium multiflorum). Kind of assay: Test A postemergence. Conditions: Lolium multiflorum, post-emergence, 240 h, 125 g ai/ha, postemergence, visual injury rating after approximately 10 d; read-out: Ryegrass, Italian plant response rating (0 to 100 scale, 0 no effect, 100 complete control). The procedure, abridged: as §1
Assay [14] relates to wheat (Triticum aestivum). Kind of assay: Test A postemergence. Conditions: Triticum aestivum, post-emergence, 240 h, 125 g ai/ha, postemergence, visual injury rating after approximately 10 d; read-out: Wheat plant response rating (0 to 100 scale, 0 no effect, 100 complete control). The procedure, abridged: as §1

As for `COc1cc([C@H]2CN(C)C(=O)[C@@H]2C(=O)Nc2ccccc2F)cc(C(F)(F)F)c1` [Compound 855], the pest or weed control at 125 g/ha in the assay on Kochia (Kochia scoparia) [1] (125 g ai/ha, preemergence, 0 to 100 scale where 0 is no effect and 100 is complete control, read-out: Kochia plant response rating) is 20%; in assay [2] (125 g ai/ha, preemergence, 0 to 100 scale where 0 is no effect and 100 is complete control, read-out: Barnyardgrass plant response rating) it was 90%; in [3] (125 g ai/ha, preemergence, 0 to 100 scale where 0 is no effect and 100 is complete control, read-out: Foxtail, Giant plant response rating) it was 90%; in [4], 30%; in [5] (125 g ai/ha, preemergence, 0 to 100 scale where 0 is no effect and 100 is complete control, read-out: Ragweed plant response rating), 0%; in assay [6] (125 g ai/ha, preemergence, 0 to 100 scale where 0 is no effect and 100 is complete control, read-out: Ryegrass, Italian plant response rating) it was 0%. Also, the pest or weed control at 125 g/ha worked out at 0% in [7]; 0% in the assay on Kochia (Kochia scoparia) [8]; 90% in assay [9]; 60% in [10]; 90% in assay [11]; 0% in [12]. In addition, in assay [13], the pest or weed control at 125 g/ha is 20%. The pest or weed control at 500 g/ha in the assay on Kochia (Kochia scoparia) [1] (500 g ai/ha, Preemergence, visual injury vs untreated controls after approximately 10 d, read-out: Kochia plant response rating (0 to 100 scale where 0 is no effect and 100 is complete control)) was 30%; in assay [2] (500 g ai/ha, Preemergence, visual injury vs untreated controls after approximately 10 d, read-out: Barnyardgrass plant response rating (0 to 100 scale where 0 is no effect and 100 is complete control)) it was 100%; in [3] (500 g ai/ha, Preemergence, visual injury vs untreated controls after approximately 10 d, read-out: Foxtail, Giant plant response rating (0 to 100 scale where 0 is no effect and 100 is complete control)) it was 90%; in [5] (500 g ai/ha, Preemergence, visual injury vs untreated controls after approximately 10 d, read-out: Ragweed plant response rating (0 to 100 scale where 0 is no effect and 100 is complete control)), 0%; in assay [6] (500 g ai/ha, Preemergence, visual injury vs untreated controls after approximately 10 d, read-out: Ryegrass, Italian plant response rating (0 to 100 scale where 0 is no effect and 100 is complete control)) it was 30%. The plant injury at 125 g/ha in the assay with corn (Zea mays) came to 70%; in [14], 50%.
